In the NIST ThermoML archive (doi:10.1021/je0501639):
Where “and” joins values, the source holds several entries; their conditions need not be identical. Equal values may be shown once. Numbers after ± are expanded uncertainties.

Key:
[1] = 100.8 kPa, Liquid
[2] = refractive index (Na D-line) (dimensionless); conditions: 101.33 kPa, Liquid, Standard Abbe refractometry
[3] = xn = mol fraction of the nth substance listed; conditions: 100.8 kPa, Liquid
[4] = refractive index (Na D-line) (dimensionless); xn = mol fraction of the nth substance listed; conditions: 100.8 kPa, Liquid, Standard Abbe refractometry
[5] = 298.15 K, Falling or rolling sphere viscometry
[6] = 308.15 K, Falling or rolling sphere viscometry
[7] = 318.15 K, Falling or rolling sphere viscometry

SMILES | mass density ([1]; 298.15 K) | mass density ([1]; 308.15 K) | mass density ([1]; 318.15 K) | refractive index ([2]; 298.15 K) | refractive index ([2]; 308.15 K) | refractive index ([2]; 318.15 K) | viscosity [1, 5] | viscosity [1, 6] | viscosity [1, 7] | mass density ([3]; 298.15 K, x1 = 1) | mass density ([3]; 308.15 K, x1 = 1) | mass density ([3]; 318.15 K, x1 = 1) | refractive index ([4]; 298.15 K, x1 = 1) | refractive index ([4]; 308.15 K, x1 = 1) | refractive index ([4]; 318.15 K, x1 = 1) | further results
CC(C)CC(C)(C)C [2,2,4-trimethylpentane] | 687.89 ± 0.32 kg/m3 | 679.55 ± 0.33 kg/m3 | 671.1 ± 0.34 kg/m3 | 1.38898 ± 0.00032 | 1.38398 ± 0.00032 | 1.37898 ± 0.00032 | – | – | – | – | – | – | – | – | – | viscosity ([1]; 298.15 K): 0.474 ± 0.014 mPa·s and 0.475 ± 0.014 mPa·s; viscosity ([1]; 308.15 K): 0.425 ± 0.014 mPa·s; viscosity ([1]; 318.15 K): 0.38 ± 0.013 mPa·s
CC(C)CC(C)(C)C [2,2,4-trimethylpentane] + CC(C)(C)O | – | – | – | – | – | – | – | – | – | – | – | – | – | – | – | mass density ([3]; 298.15 K, x2 = 0): 687.89 ± 0.32 kg/m3; viscosity ([3]; 298.15 K, x2 = 0): 0.475 ± 0.018 mPa·s; mass density ([3]; 308.15 K, x2 = 0): 679.55 ± 0.33 kg/m3; viscosity ([3]; 308.15 K, x2 = 0): 0.425 ± 0.017 mPa·s; mass density ([3]; 318.15 K, x2 = 0): 671.1 ± 0.34 kg/m3; viscosity ([3]; 318.15 K, x2 = 0): 0.38 ± 0.016 mPa·s; refractive index ([4]; 298.15 K, x2 = 0): 1.38898 ± 0.00032; refractive index ([4]; 308.15 K, x2 = 0): 1.38398 ± 0.00032; refractive index ([4]; 318.15 K, x2 = 0): 1.37898 ± 0.00032
CC(C)(C)O [2-methylpropan-2-ol] | 780.99 ± 0.31 kg/m3 | 770.7 ± 0.31 kg/m3 | 760.05 ± 0.32 kg/m3 | 1.38481 ± 0.00033 | 1.3796 ± 0.00033 | 1.37416 ± 0.00033 | 4.43 ± 0.04 mPa·s | 2.622 ± 0.027 mPa·s | 1.708 ± 0.02 mPa·s | – | – | – | – | – | – | –
CCO [ethanol] | 785.1 ± 0.24 kg/m3 | 776.43 ± 0.25 kg/m3 | 767.61 ± 0.26 kg/m3 | 1.35932 ± 0.00031 | 1.35509 ± 0.00031 | 1.351 ± 0.00031 and 1.35095 ± 0.00031 | 1.085 ± 0.014 mPa·s | 0.906 ± 0.014 mPa·s | 0.756 ± 0.013 mPa·s | – | – | – | – | – | – | –
CCO [ethanol] + CC(C)(C)O | – | – | – | – | – | – | – | – | – | 785.1 ± 0.24 kg/m3 | 776.43 ± 0.25 kg/m3 | 767.61 ± 0.26 kg/m3 | 1.35932 ± 0.00031 | 1.35509 ± 0.00031 | 1.351 ± 0.00031 | viscosity ([3]; 298.15 K, Falling or rolling sphere viscometry, x1 = 1): 1.085 ± 0.014 mPa·s; viscosity ([3]; 308.15 K, Falling or rolling sphere viscometry, x1 = 1): 0.906 ± 0.014 mPa·s; viscosity ([3]; 318.15 K, Falling or rolling sphere viscometry, x1 = 1): 0.756 ± 0.013 mPa·s
CCO [ethanol] + CC(C)CC(C)(C)C | – | – | – | – | – | – | – | – | – | 785.1 ± 0.24 kg/m3 | 776.43 ± 0.25 kg/m3 | 767.61 ± 0.26 kg/m3 | 1.35932 ± 0.00031 | 1.35509 ± 0.00031 | 1.35095 ± 0.00031 | viscosity ([3]; 298.15 K, x1 = 1): 1.085 ± 0.02 mPa·s; viscosity ([3]; 308.15 K, x1 = 1): 0.906 ± 0.018 mPa·s; viscosity ([3]; 318.15 K, x1 = 1): 0.756 ± 0.016 mPa·s
